Results: patent US10822376B2, “Biologically active peptides” (Baxalta Incorporated, priority 2008, dated 2020)

Key:
[1] = system: FVIII-inhibited human normal plasma; test: Defined Fibrin Deposition Assay (clotting time); format: biochemical
in vitro [2] = format: in vitro ADME; settings: mouse, microsomes, pH 7.4
Description: Tests were used to determine the stability of compounds in microsomal preparations of human or animal origin. The microsomal stability is measured either in assays provided by Cerep (France, Catalog ref. 900-8h) or by the protocol described below. […] All wells must be carefully mixed to ensure a homogenous suspension before the next steps. 75 μl samples (duplicates) at t=0 minutes are taken for each compound. The plate is sealed and returned to the water bath/thermomixer for 30 minutes. The test compounds/standards are extracted by addition of 200 μl methanol, also including an internal standard. […] The samples are centrifuged at 1300 g for 10 min at 4° C. 200 μl of the supernatant is transferred into a 96-well plate with 10 μl DMSO per well. Compound stability is measured by HPLC-MS analysis (triplicates). The same procedure is repeated after 30 min. […] The signal to noise ratio for all peaks must be 5:1 or better. The ratio AUCanalyte: AUCstandard at the different timepoints must be used. The calculated stability for the control compound must fall in a certain range to validate the assay.

HERG channel = HERG channel (Homo sapiens, UniProt Q12809); test: HERG inhibition, patch clamp assay; settings: patch clamp assay
Description: QT prolongation is assessed by HERG inhibition measured by patch-clamp techniques or Rb^+ efflux.
For rigorous characterization of HERG inhibition the patch clamp assay is applied (Cerep, France, Catalog ref. 900-36). […] The test compounds (10 mM stock solutions) were dissolved in dimethylsulfoxide (DMSO). The solutions at 1 μM contained 0.01% DMSO.

in vivo = settings: C57BL/6, mouse, iv
Description: Pharmacokinetics of compounds were tested in C57BI/6 mice or Wistar rats at 1-30 mg/kg. Compound concentrations in the blood stream were monitored at appropriate intervals using LC-MS.
Pharmacokinetic studies were performed to monitor compound concentrations in plasma following i.v., i.p. or s.c. administration. Studies were conducted in C57BI/6 mice weighing approximately 20 g.
Peptide concentrations in the plasma were analysed by HPLC-MS on a Surveyor HPLC combined with mass spectrometer LCQ classic or Advantage (all Thermo Electron, US) equipped with an ESI-source. All HPLC experiments were carried out on a Phenomenex C-18 Luna column (50 mm×2.0 mm, 5 μl injection volume) using a linear gradient: eluent A 0.05% trifluoracetic acid (TFA) in water; eluent B 0.05% TFA in acetonitrile; flow rate 0.3 mL/min in 10 min. […] The internal standard is prepared as a 0.1 μg/ml solution in 100% methanol. 50 μl plasma and 50 μl internal standard are mixed. 100 μl methanol is added and mixed thoroughly. After 30 min incubation on ice the vial is centrifuged for 15 min at 4° C. […] 150 μl of the supernatant are transferred into the HPLC vial

in vitro [3] = settings: human, pH 7.4
in vitro [4] = settings: mouse, pH 7.4
mouse serum albumin = mouse serum albumin (Mus musculus, UniProt P07724); test: in vitro; settings: pH 7.4
in vitro [5] = settings: human, plasma
Description: Half-life of compounds in human or mouse plasma, or percentage of compound remaining after an incubation in human or mouse plasma, is determined as follows. In the experimental procedure, test compound concentrations are 5 μM, prepared from test compound stock solutions of 10 mM in DMSO. Propantheline is used as a standard. […] All of the samples are incubated in a water bath at 37° C. […] After a chosen duration of incubation (generally at t=60 min) each sample is mixed with a further 500 μl acetonitrile. The samples are mixed on a vortex mixer for 30 s and placed on ice for 10 min and collected for centrifugation. Samples are centrifuged at 20 000 g for 10 min at 4° C. 500 μl supernatant is transferred into a new 1.5 ml Eppendorf tube and an equal volume of acetonitrile is added. The sample is mixed again for 30 s using a vortex mixer. After a second centrifugation step (20 000 g, 10 min, 4° C.) 250 μl of the supernatant is transferred into HPLC glass vials for HPLC-MS analysis. Conditions for performing HPLC are as follows: Injection-volume is set to 20 μl. Temperature is set to 25° C. A linear gradient from 95:5 to 5:95 water:acetonitrile both containing 0:05% trifluoroacetic acid (TFA) (v/v) is applied at a flow rate of 0.3 ml/min for 10 min. The PDA-detector is scanning from 210-400 nm.

FVIII−/− (E17) mice = test: Tail clip assay in FVIII−/− mice (blood loss, survival)
Description: Groups of mice, typically 8-16 male and female exon 17 FVIII knockout mice with severe hemorrhagic diathesis, receive a single i.v. (tail vein), i.p. or s.c. bolus injection (10 ml/kg body weight). Two minutes before tail clip, animals are anesthetized by an i.p. application of 100 mg/kg ketamine and 5 mg/kg xylazine. Five minutes after i.v. and 60 minutes after i.p. or s.c. peptide or peptide derivative administration 0.5 cm of the tail tip is ablated. Blood dropping from the wound is collected in tubes containing 5.0 ml 0.04% NH3 for defined time periods, such as 0-2 minutes, 2-4 minutes, 4-6 minutes, 6-8, 8-10, 10-12, 12-14, 14-16, 16-20, 20-24, 24-28, 28-32, 32-42, 42-52 and 52-62 minutes. Blood cells in each tube are disrupted and hemoglobin is extracted by a three hour incubation period at room temperature followed by ultrasound treatment. The absorbance at 414 nm and 620 nm of the extracts is determined in micro titre plates. 620 nm is a reference wavelength and the A620 reading is subtracted from the A414 reading. The amount of blood in the extract corresponding to the subtracted reading is calculated from a standard curve created by known amounts of blood from wild type control mice, such as C57/BI6 mice. Parameters of the bleeding characteristics of the mice to be recorded are total blood loss, bleeding rate, bleeding time, 1 h, 2 h, 3 h, 4 h, 24 h and 48 h survival. Cumulative blood loss is calculated by summing up the amounts of blood for each time period. Data for the animals of a group are averaged and plotted against bleeding time. At each time point data sets for treatment and vehicle control groups are analysed by Student's t-test for statistical significance.
Parameters quantified were total blood loss, bleeding time, bleeding rate and survival.
Blood loss was monitored in the tail clip assay as described in the specific description for 62 minutes after tail clip. FVIII−/− mice were administered with rFVIII (Advate®) at 25, 50 or 100 U/kg i.v. or with vehicle alone. […] As a control, C57BI/6 mice were administered vehicle alone.
Vehicle was 5% DMSO, 5% Cremophor EL, 0.05% Tween 80 in water for injection.

Sequence of mouse serum albumin (P07724 25-608): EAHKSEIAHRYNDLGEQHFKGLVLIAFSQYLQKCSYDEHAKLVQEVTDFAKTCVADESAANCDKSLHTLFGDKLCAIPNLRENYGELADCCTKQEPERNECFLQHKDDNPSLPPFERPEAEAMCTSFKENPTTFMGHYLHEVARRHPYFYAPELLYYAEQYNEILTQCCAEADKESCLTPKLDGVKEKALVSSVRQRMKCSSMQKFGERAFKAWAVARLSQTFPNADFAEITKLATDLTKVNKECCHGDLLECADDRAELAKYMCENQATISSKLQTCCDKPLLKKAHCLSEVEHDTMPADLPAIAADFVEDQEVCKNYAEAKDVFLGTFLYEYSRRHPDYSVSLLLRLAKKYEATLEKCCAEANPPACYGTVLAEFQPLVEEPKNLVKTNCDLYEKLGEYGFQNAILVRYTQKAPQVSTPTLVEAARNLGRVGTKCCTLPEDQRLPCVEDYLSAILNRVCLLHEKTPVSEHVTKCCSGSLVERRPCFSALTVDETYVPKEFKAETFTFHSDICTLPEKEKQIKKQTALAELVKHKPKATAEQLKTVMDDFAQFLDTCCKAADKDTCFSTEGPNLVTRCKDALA
Sequence of HERG channel (Q12809 whole entry): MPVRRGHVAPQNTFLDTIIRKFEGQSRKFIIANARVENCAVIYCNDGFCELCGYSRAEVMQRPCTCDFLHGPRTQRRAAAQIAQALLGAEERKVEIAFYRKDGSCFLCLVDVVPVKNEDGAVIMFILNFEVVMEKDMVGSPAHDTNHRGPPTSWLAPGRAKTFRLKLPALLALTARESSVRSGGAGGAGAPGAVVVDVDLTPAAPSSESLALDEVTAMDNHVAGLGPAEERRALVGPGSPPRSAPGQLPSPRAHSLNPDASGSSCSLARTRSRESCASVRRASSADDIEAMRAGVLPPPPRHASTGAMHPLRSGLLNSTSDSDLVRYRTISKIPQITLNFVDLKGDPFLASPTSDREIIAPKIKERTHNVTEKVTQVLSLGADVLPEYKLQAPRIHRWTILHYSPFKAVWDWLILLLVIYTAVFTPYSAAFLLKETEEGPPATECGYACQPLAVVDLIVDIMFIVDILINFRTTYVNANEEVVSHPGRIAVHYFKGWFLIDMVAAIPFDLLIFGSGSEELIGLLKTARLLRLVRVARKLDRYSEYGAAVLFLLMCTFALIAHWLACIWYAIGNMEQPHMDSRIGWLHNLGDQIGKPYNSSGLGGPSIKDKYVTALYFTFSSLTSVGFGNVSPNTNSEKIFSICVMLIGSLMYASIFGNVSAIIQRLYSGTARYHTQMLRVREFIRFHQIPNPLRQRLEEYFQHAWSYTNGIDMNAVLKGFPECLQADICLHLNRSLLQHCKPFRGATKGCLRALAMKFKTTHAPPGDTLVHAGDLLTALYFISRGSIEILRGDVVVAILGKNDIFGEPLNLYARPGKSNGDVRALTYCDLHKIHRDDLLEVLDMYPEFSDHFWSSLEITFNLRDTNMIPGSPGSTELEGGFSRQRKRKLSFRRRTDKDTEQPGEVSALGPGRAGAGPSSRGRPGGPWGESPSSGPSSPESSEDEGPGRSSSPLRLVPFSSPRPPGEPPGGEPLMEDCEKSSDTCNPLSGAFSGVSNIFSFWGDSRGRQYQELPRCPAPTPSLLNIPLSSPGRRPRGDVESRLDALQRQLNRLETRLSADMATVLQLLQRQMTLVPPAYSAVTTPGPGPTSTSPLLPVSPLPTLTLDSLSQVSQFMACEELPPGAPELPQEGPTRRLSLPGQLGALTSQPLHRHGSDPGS

Ac-RMKFDVWDLYFEIVW-NH2 [Peptide A01]
FEIBA EU (from clotting time) ([1]; compound 25 μM): 80 mU/ml | FEIBA EU (from clotting time) ([1]; compound 50 μM): 127 mU/ml | FEIBA EU (from clotting time) ([1]; compound 100 μM): 145 mU/ml | Activity in the Defined Fibrin Deposition Assay ([1]; summary): possess activity | remaining at 0.5 h, 1 μM (in vitro [2]): 30% | Classification as HERG-channel blocker (potency ranking of Roche et al.) (HERG channel): low-potency | level at 5 min (in vivo): 0.673 µg/mL | level at 10 min (in vivo): 0.352 µg/mL | level at 0.25 h (in vivo): 0.454 µg/mL | level at 20 min (in vivo): 0.145 µg/mL | level at 25 min (in vivo): 0.282 µg/mL | level at 0.5 h (in vivo): 0.115 µg/mL | recovery at 6 h, 5 μM (in vitro [3]): > 88.6% | fraction unbound at 6 h, 5 μM (in vitro [3]; plasma): < 0.017 | recovery at 6 h, 5 μM (in vitro [4]): > 73.3% | fraction unbound at 6 h, 5 μM (in vitro [4]; plasma): < 0.008 | fraction unbound at 6 h, 5 μM (mouse serum albumin): < 0.003 | recovery at 6 h, 5 μM (mouse serum albumin): > 103% | remaining at 0.5 h, 5 μM (in vitro [5]): 58% | Survival vs vehicle control (FVIII−/− (E17) mice; 20 mg/kg i.v.): statistically significant longer survival | Mean volume of blood loss following tail clip compared to vehicle control (FVIII−/− (E17) mice; 20 mg/kg i.v. five minutes before tail clip, p<0.05 at most time points): significantly different | p of difference in mean blood loss vs vehicle (FVIII−/− (E17) mice; 20 mg/kg i.v., at 52 and 62 minutes after tail clip): < 0.01 | Survival (%) 2 hours (FVIII−/− (E17) mice; FVIII−/− mice, 20 mg/kg i.v. five minutes before tail clip, 2 hours (Table 26)): 56% | Survival (%) 4 hours (FVIII−/− (E17) mice; FVIII−/− mice, 20 mg/kg i.v. five minutes before tail clip, 4 hours (Table 26)): 25% | Survival (%) 24 hours (FVIII−/− (E17) mice; FVIII−/− mice, 20 mg/kg i.v. five minutes before tail clip, 24 hours (Table 26)): 6% | Survival (%) 48 hours (FVIII−/− (E17) mice; FVIII−/− mice, 20 mg/kg i.v. five minutes before tail clip, 48 hours (Table 26)): 0% | Survival (%) 2 hours (FVIII−/− (E17) mice; FVIII−/− mice, Exp 1, 20 mg/kg i.v., tail clip, 2 hours): 56% | Survival (%) 3 hours (FVIII−/− (E17) mice; FVIII−/− mice, Exp 1, 20 mg/kg i.v., tail clip): 44% | Survival (%) 4 hours (FVIII−/− (E17) mice; FVIII−/− mice, Exp 1, 20 mg/kg i.v., tail clip, 4 hours): 25% | Survival (%) 24 hours (FVIII−/− (E17) mice; FVIII−/− mice, Exp 1, 20 mg/kg i.v., tail clip, 24 hours): 6% | Survival (%) 2 hours (FVIII−/− (E17) mice; FVIII−/− mice, Exp 2 (repeat), 20 mg/kg i.v., tail clip, 2 hours): 63% | Survival (%) 3 hours (FVIII−/− (E17) mice; FVIII−/− mice, Exp 2 (repeat), 20 mg/kg i.v., tail clip): 38% | Survival (%) 4 hours (FVIII−/− (E17) mice; FVIII−/− mice, Exp 2 (repeat), 20 mg/kg i.v., tail clip, 4 hours): 31% | Survival (%) 24 hours (FVIII−/− (E17) mice; FVIII−/− mice, Exp 2 (repeat), 20 mg/kg i.v., tail clip, 24 hours): 13% | Total blood loss (% of Vehicle) (FVIII−/− (E17) mice; FVIII−/− mice, female, 20 mg/kg i.p., 0.5 cm tail clip): 72 % of Vehicle | Survival 2 hours (%) (FVIII−/− (E17) mice; FVIII−/− mice, female, 20 mg/kg i.p., 0.5 cm tail clip, 2 hours): 75% | Survival 4 hours (%) (FVIII−/− (E17) mice; FVIII−/− mice, female, 20 mg/kg i.p., 0.5 cm tail clip, 4 hours): 25% | Survival 24 hours (%) (FVIII−/− (E17) mice; FVIII−/− mice, female, 20 mg/kg i.p., 0.5 cm tail clip, 24 hours): 25% | Survival 2 hours (%) (FVIII−/− (E17) mice; FVIII−/− mice, female, 20 mg/kg i.v., 1 cm tail clip, 2 hours): 80% | Survival 24 hours (%) (FVIII−/− (E17) mice; FVIII−/− mice, female, 20 mg/kg i.v., 1 cm tail clip, 24 hours): 10% | Total blood loss (% of Vehicle) (FVIII−/− (E17) mice; FVIII−/− mice, male, 20 mg/kg i.p., 0.5 cm tail clip): 83 % of Vehicle | Survival 2 hours (%) (FVIII−/− (E17) mice; FVIII−/− mice, male, 20 mg/kg i.p., 0.5 cm tail clip, 2 hours): 38% | Survival 4 hours (%) (FVIII−/− (E17) mice; FVIII−/− mice, male, 20 mg/kg i.p., 0.5 cm tail clip, 4 hours): 25% | Survival 24 hours (%) (FVIII−/− (E17) mice; FVIII−/− mice, male, 20 mg/kg i.p., 0.5 cm tail clip, 24 hours): 25% | Survival 2 hours (%) (FVIII−/− (E17) mice; FVIII−/− mice, male, 20 mg/kg i.v., 1 cm tail clip, 2 hours): 20% | Survival 24 hours (%) (FVIII−/− (E17) mice; FVIII−/− mice, male, 20 mg/kg i.v., 1 cm tail clip, 24 hours): 0% | Compensation for lack of FVIII (reducing blood loss, increasing survival following tail clip) (FVIII−/− (E17) mice; conclusion): at least partially compensate for the lack of FVIII | Gender effect on efficacy (FVIII−/− (E17) mice; i.v., tail clip 1 cm): more effective in female than male mice | Difference in survival curves vs vehicle (FVIII−/− (E17) mice; male mice, 20 mg/kg i.p., 0.5 cm tail clip): no statistically significant difference | Bleeding and survival in two independently performed experiments (FVIII−/− (E17) mice; repeat experiment): bleed less and survive longer | Activity in the tail clip assay (FVIII−/− (E17) mice; summary): possessing activity
